One compound from patent US10765674B2, “Prevention of HIV-infection” (Janssen Sciences Ireland Unlimited Company, priority 2005, dated 2020) can be followed below.

Some results are limits rather than exact numbers.

This series is described as follows: Tissue concentrations of TMC278 in beagle dog (biopsy on day 232) after single intramuscular administration. The format is in vivo, beagle dogs. The following applies: dog No. 16924, day 232 after single IM 2.5 mg/kg, aqueous 30% DMA/50% PEG400 solution; for concentration at 232 day: male, beagle, intramuscular. On the procedure: On day 232 post-dose, a biopsy was performed (dog No. 16924 only) on the iliac lymph node (at the side of injection), on a muscle from the non-injected hind leg and on a muscle at the side of injection after ultrasonographic examination. All tissue samples were protected from light as much as possible and stored on melting ice. All samples were protected from light and stored at ≤−18° C. Finally, an additional blood sample was collected on day 272. This sample was processed and analysed similarly to the other blood samples. The concentration of TMC278 in dog tissue samples was also determined by a qualified research LC-MS/MS method. Tissues samples were homogenized with a 10-fold dilution in Milli-Q water by means of an Ultra-Turrax. The tissue homogenates (200 μl aliquot) were extracted by adding of 600 μl methanol (containing […]). After vortexing and centrifugation, the supernatant was transferred to an HPLC vial and 20 μl aliquots were injected. The LC and the MS conditions were the same as described above. The lower limit of quantification was 10.0 ng/g tissue. Samples were protected from light during the bioanalytical analysis.

The mark [1] stands for this setting: muscle at the side of injection.
The mark [2] stands for this setting: muscle from the non-injected hind leg.

For `Cc1cc(C=CC#N)cc(C)c1Nc1ccnc(Nc2ccc(C#N)cc2)n1` [TMC278, 4-[[4-[[4-(2-cyanoethenyl)-2,6-dimethylphenyl]amino]-2-pyrimidinyl]-amino]benzonitrile], the concentration at 232 day runs as follows: (iliac lymph node at the side of injection) 72.6 ng/g; under setting [1], less than 10 ng/g; under setting [2], less than 10 ng/g. Also, the tissue concentration reads like this: under setting [1], less than 10.0 ng/g; under setting [2], less than 10.0 ng/g.
